Data set [1] has as its system HCC1569. Put plainly: Antiproliferative activity against human HCC1569 cells incubated for 48 to 96 hrs by CCK-8 assay. It counts as functional, cell-based. In general terms: Tetrazolium dyes change colour on reduction, which living cells bring about.
Data set [2] concerns ZR-75-1. As to the kind of experiment: Antiproliferative activity against human ZR-75-1 cells incubated for 48 to 96 hrs by CCK-8 assay. It is filed as functional, cell-based.
In data set [3] the target is Membrane-associated tyrosine- and threonine-specific cdc2-inhibitory kinase (Homo sapiens, UniProt Q99640). As to the kind of experiment: Inhibition of recombinant human GST-tagged PKMYT1 (75 to 362 residues) expressed in insect cells using GTDEGIYDVPLLG as substrate preincubated for 15 mins followed by substrate and ATP addition and measured after 1 hr by ADP-Glo kinase assay. Set-up: species or system Insect cell. (ADP-Glo first removes unused ATP, then detects ADP through luciferase.)

In the next data set the target is Wee1-like protein kinase (Homo sapiens, UniProt P30291). As to the kind of experiment: Inhibition of recombinant full-length human GST-tagged Wee1 expressed in insect cells using KIGEGTYGVVYKG as substrate preincubated for 15 mins followed by substrate and ATP addition and measured after 1 hr by ADP-Glo kinase assay. Set-up: species or system Insect cell.
In another data set the target is Activated CDC42 kinase 1 (Homo sapiens, UniProt Q07912). Put plainly: Inhibition of ACK1 (unknown origin).
The target in data set [4] is Tyrosine-protein kinase ABL2 (Homo sapiens, UniProt P42684). As to the kind of experiment: Inhibition of Arg (unknown origin).
Data set [5] has as its target Tyrosine-protein kinase Blk (Homo sapiens, UniProt P51451). Put plainly: Inhibition of BLK (unknown origin).
The target in data set [6] is Protein-tyrosine kinase 6 (Homo sapiens, UniProt Q13882). As to the kind of experiment: Inhibition of BRK (unknown origin).
Data set [7] concerns the target Proto-oncogene tyrosine-protein kinase Src (Homo sapiens, UniProt P12931). Put plainly: Inhibition of cSRC (unknown origin).
Data set [8] deals with Epithelial discoidin domain-containing receptor 1 (Homo sapiens, UniProt Q08345). Put plainly: Inhibition of DDR1 (unknown origin).
The target in a further data set is Ephrin type-A receptor 1 (Homo sapiens, UniProt P21709). As to the kind of experiment: Inhibition of EphA1 (unknown origin).
The target of a further data set is Ephrin type-B receptor 2 (Homo sapiens, UniProt P29323). Put plainly: Inhibition of EphB2 (unknown origin).
A further data set has as its target Ephrin type-B receptor 1 (Homo sapiens, UniProt P54762). Put plainly: Inhibition of EphB1 (unknown origin).
Another data set has as its target Ephrin type-B receptor 4 (Homo sapiens, UniProt P54760). As to the kind of experiment: Inhibition of EphB4 (unknown origin).
For data set [9], the target named is Tyrosine-protein kinase Fgr (Homo sapiens, UniProt P09769). Put plainly: Inhibition of Fgr (unknown origin).
Data set [10] has as its target Tyrosine-protein kinase HCK (Homo sapiens, UniProt P08631). Put plainly: Inhibition of HCK (unknown origin).
Data set [11] deals with Tyrosine-protein kinase Lck (Homo sapiens, UniProt P06239). Put plainly: Inhibition of LCK (unknown origin).
For data set [12], the target named is Tyrosine-protein kinase Lyn (Homo sapiens, UniProt P07948). Put plainly: Inhibition of Lyn (unknown origin).
For data set [13], the target named is Tyrosine-protein kinase Yes (Homo sapiens, UniProt P07947). As to the kind of experiment: Inhibition of YES (unknown origin).
Data set [14] concerns the target Cyclin-dependent kinase 1 (Homo sapiens) (UniProt P06493). Put plainly: Inhibition of CDK1 phosphorylation at Thr14 in human HCC1569 cells after 4 hrs by Western blotting analysis. It counts as cell-based. The following applies: dose 0.1-2 µM.
For data set [15] the target is unchanged. Put plainly: Inhibition of CDK1 phosphorylation at Thr14 in human HCC1569 cells at 2 uM after 8 to 12 hrs by Western blotting analysis. It counts as cell-based. The following applies: time 8-12 hrs. (In general: Immunoblotting shows a protein as a band on a membrane.)
The target is the same in data set [16]. Put plainly: Inhibition of CDK1 phosphorylation at […] in human HCC1569 cells at 2 uM after 0.5 to 12 hrs by Western blotting analysis. It is filed as cell-based. The following applies: time 0.5-12 hrs.
Data set [17] deals with Cyclin-dependent kinase 2 (Homo sapiens) (UniProt P24941). Put plainly: Inhibition of CDK2 phosphorylation at Tyr15 in human HCC1569 cells at 0.1 to 2 uM after 4 hrs by Western blotting analysis. It counts as cell-based. The following applies: dose 0.1-2 µM.
Data set [18] relates to HCC1569. Put plainly: Inhibition of colony formation in CCNE1-amplified human HCC1569 cells incubated for 14 days by crystal violet staining based microplate reader assay. The following applies: HCC1569, 336 h. It counts as functional, cell-based.
In data set [19] the test system is ZR-75-1. As to the kind of experiment: Inhibition of colony formation in human ZR-75-1 cells incubated for 14 days by crystal violet staining based microplate reader assay. It counts as functional, cell-based. The following applies: ZR-75-1, 336 h.
In data set [20] the test system is HCC1569. As to the kind of experiment: Induction of DNA damage in human HCC1569 cells assessed as upregulation of gammaH2AX level after 4 hrs by Western blotting analysis. It counts as functional, cell-based. The following applies: dose 0.1-2 µM.
Data set [21] deals with HCC1569. As to the kind of experiment: Induction of DNA damage in human HCC1569 cells assessed as upregulation of gammaH2AX level at 2 uM by Western blotting analysis. It counts as functional, cell-based. The following applies: time 0.5-12 hrs, TDE = time-dependent effect.
Data set [22] concerns HCC1569. As to the kind of experiment: Synergistic cytotoxicity against human HCC1569 cells after 48 to 96 hrs. It counts as functional, cell-based. The following applies: time 48-96 hrs.
In data set [23] the test system is HCC1569. Put plainly: Induction of DNA damage in human HCC1569 cells assessed as upregulation of gammaH2AX level at 62.5 to 500 nM after 48 hrs in presence of gemcitabine by Western blotting analysis. It counts as functional, cell-based. The following applies: dose 62.5-500 nM.
A short description of data set [24]: Cmax in Sprague-Dawley rat at 10 mg/kg, po measured upto 24 hrs by LC-MS/MS analysis. It is filed as ADME, organism-based. The following applies: in vivo.
Data set [25] is described as follows: AUC(0 to t) in Sprague-Dawley rat at 10 mg/kg, po measured upto 24 hrs by LC-MS/MS analysis. It is filed as ADME, organism-based. The following applies: in vivo.
The nature of data set [26]: Clearance in Sprague-Dawley rat at 10 mg/kg, po measured upto 24 hrs by LC-MS/MS analysis. It is filed as ADME, organism-based. The following applies: in vivo.

Active and inactive are the calls of the source. The calls are words filed in the database; no cut-off is given here.

Cyclin-dependent kinase 1 (Homo sapiens), sequence (P06493 whole entry, looked up): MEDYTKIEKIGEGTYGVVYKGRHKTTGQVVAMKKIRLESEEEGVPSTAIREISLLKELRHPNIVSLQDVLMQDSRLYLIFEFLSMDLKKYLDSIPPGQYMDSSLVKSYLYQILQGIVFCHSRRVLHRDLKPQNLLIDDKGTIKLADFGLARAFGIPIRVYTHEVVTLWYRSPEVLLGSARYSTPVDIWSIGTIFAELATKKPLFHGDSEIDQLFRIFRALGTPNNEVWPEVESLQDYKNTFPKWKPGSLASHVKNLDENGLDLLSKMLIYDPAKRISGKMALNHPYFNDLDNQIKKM
Membrane-associated tyrosine- and threonine-specific cdc2-inhibitory kinase, sequence (Q99640 whole entry, the tested form may be a part): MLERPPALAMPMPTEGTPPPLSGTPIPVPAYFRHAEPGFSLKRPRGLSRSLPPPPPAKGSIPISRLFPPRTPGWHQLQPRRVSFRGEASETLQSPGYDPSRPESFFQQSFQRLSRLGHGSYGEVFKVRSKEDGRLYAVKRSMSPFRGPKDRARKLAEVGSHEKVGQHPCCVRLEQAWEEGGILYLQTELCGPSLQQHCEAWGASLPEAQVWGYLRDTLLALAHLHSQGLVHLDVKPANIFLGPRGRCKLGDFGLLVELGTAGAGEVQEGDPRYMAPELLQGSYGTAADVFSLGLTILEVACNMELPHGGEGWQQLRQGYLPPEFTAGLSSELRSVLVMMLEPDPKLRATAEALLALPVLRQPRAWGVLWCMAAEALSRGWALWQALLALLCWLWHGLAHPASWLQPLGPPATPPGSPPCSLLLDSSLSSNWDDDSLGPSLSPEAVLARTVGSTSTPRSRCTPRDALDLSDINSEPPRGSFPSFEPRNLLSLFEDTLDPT
Protein-tyrosine kinase 6, sequence (Q13882 whole entry): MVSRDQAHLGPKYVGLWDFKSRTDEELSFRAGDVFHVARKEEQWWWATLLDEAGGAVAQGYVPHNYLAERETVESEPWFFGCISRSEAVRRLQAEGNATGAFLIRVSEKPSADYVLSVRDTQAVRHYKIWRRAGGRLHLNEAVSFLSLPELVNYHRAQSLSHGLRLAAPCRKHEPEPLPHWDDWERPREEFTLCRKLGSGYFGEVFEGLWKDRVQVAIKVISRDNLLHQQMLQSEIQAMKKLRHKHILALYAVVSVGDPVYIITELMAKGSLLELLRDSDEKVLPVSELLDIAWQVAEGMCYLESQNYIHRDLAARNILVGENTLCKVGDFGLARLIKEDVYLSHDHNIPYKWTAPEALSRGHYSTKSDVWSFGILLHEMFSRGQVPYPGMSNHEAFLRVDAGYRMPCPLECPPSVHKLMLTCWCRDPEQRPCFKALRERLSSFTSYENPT
Tyrosine-protein kinase ABL2, sequence (P42684 whole entry): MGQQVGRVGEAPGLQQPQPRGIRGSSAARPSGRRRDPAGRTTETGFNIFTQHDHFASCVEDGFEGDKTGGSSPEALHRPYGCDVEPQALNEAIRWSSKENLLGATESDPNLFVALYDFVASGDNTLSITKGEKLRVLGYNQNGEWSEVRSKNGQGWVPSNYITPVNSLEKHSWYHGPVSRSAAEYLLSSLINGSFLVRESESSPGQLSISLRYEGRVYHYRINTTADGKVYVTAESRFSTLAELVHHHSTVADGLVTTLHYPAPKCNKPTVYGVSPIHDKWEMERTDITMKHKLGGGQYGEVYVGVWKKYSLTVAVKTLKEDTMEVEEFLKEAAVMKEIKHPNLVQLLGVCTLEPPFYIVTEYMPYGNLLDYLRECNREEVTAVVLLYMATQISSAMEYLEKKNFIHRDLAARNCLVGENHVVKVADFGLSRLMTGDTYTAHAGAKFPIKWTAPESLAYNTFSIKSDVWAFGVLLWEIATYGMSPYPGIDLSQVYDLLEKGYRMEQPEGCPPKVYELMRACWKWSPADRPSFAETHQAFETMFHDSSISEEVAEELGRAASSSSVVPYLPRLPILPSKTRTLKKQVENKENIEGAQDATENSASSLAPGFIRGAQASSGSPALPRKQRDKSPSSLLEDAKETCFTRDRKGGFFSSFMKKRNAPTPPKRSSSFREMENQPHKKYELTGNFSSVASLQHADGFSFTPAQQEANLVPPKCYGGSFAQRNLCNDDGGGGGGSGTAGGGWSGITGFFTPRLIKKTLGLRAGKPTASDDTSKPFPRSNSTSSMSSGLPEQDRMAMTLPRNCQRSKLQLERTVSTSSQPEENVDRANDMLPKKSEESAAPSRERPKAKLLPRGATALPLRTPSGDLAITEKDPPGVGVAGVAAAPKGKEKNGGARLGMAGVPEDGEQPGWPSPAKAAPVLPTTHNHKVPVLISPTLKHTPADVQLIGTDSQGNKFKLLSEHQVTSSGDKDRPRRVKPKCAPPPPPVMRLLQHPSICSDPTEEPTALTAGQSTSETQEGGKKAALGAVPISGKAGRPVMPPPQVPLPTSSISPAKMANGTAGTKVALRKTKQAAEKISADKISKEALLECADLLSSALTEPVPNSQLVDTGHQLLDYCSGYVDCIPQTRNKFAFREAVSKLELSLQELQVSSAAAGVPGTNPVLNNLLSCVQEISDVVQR
Tyrosine-protein kinase Yes, sequence (P07947 whole entry): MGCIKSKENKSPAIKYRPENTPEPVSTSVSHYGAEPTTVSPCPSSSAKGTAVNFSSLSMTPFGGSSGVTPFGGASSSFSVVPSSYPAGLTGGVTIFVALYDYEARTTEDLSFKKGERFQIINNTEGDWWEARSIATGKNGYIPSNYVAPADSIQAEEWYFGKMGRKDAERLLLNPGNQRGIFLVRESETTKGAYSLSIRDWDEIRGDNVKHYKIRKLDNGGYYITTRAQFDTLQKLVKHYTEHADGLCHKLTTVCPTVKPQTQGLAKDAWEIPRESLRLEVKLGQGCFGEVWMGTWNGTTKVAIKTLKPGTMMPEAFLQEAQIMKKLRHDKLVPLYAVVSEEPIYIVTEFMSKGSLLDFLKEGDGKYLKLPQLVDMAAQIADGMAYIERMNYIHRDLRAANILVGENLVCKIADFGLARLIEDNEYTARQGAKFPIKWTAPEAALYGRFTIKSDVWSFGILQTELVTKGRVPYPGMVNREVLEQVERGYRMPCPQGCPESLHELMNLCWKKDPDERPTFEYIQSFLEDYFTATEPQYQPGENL
Epithelial discoidin domain-containing receptor 1, sequence (Q08345 whole entry, the tested form may be a part): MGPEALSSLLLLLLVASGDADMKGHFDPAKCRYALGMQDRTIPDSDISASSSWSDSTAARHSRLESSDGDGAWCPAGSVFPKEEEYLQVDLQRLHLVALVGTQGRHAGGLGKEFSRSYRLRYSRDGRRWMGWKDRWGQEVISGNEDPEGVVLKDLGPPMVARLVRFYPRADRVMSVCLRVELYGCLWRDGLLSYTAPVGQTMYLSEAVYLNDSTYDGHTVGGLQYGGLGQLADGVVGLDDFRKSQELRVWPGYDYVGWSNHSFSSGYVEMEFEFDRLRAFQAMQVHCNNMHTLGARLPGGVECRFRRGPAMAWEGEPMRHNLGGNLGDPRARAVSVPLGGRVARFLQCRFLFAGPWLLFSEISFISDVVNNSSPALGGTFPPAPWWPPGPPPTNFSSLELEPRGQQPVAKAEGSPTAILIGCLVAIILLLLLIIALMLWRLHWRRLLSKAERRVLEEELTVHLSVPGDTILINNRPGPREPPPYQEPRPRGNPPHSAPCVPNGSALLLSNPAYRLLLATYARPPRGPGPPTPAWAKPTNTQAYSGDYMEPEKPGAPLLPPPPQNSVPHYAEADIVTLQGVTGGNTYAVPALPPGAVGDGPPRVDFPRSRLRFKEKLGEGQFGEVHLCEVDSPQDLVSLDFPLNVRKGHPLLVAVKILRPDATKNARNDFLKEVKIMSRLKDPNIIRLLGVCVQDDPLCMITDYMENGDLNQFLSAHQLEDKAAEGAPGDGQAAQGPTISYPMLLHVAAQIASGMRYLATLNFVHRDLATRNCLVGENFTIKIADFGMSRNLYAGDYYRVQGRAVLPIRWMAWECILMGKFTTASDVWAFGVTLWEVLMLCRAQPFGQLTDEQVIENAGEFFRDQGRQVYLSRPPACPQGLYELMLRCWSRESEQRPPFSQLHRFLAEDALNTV
Ephrin type-A receptor 1, sequence (P21709 whole entry): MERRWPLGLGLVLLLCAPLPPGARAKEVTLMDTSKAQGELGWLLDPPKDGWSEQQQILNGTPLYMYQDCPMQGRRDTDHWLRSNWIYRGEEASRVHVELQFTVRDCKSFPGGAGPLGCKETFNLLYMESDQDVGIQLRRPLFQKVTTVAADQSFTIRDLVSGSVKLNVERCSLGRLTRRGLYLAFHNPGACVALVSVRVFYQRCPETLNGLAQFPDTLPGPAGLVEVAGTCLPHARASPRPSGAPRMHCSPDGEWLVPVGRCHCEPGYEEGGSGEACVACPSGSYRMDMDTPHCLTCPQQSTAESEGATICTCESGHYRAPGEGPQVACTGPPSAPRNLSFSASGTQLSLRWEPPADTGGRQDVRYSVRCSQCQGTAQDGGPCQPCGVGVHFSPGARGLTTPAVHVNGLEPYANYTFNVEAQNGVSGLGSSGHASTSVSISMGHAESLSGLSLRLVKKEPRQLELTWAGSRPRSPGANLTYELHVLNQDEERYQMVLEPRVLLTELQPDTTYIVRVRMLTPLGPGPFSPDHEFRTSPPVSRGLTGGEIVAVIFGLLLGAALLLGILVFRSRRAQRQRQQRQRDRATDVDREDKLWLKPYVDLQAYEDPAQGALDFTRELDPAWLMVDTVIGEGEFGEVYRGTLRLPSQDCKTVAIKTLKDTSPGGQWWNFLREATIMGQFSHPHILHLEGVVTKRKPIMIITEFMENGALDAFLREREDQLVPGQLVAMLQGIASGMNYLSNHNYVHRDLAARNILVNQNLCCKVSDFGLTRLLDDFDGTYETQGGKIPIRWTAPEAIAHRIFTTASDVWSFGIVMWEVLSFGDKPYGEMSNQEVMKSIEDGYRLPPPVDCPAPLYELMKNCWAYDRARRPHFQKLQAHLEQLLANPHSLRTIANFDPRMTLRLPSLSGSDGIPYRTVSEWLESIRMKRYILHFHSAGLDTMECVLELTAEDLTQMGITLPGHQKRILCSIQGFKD

Regarding `CN[C@@H]1CCN(c2cc(-c3cc(C(N)=O)c(N)c(-c4c(C)ccc(O)c4C)c3)ccn2)C1`, the results for the IC50 with HCC1569 [1] and with ZR-75-1 [2] were 0.47 µM and 5.6 µM, respectively.
With `Cc1ccc(O)c(C)c1-c1cc(-c2ccnc(N3CCOCC3)c2)cc(C(N)=O)c1N`, the figures for the IC50 in the data set with HCC1569 [1] and in the data set on ZR-75-1 [2] were 1.84 µM and above 20 µM, respectively.
The matching figures for `Cc1ccc(O)c(C)c1-c1cc(-c2ccnc(OCCN)c2)cc(C(N)=O)c1N`: 1.66 µM and 4.4 µM.
For `Cc1ccc(O)c(C)c1-c1cc(-c2cc(OC(F)F)nc(N3CC[C@@H](N)C3)c2)cc(C(N)=O)c1N`, the IC50 with HCC1569 [1] was 0.8 µM; in the data set with ZR-75-1 [2], 4.15 µM.
For `Cc1ccc(O)c(C)c1-c1cc(-c2ccnc(N3CC[C@H](N)C3)c2)cc(C(N)=O)c1N`, the IC50 was 1.65 µM with HCC1569 [1] and above 20 µM in the data set on ZR-75-1 [2].
For the compound `Cc1ccc(O)c(C)c1-c1cc(-c2ccnc(N3C4CNCC3C4)c2)cc(C(N)=O)c1N`, the concentration for half-maximal inhibition (IC50) with HCC1569 [1] and in the data set on ZR-75-1 [2] was above 20 µM in each case.
On to `Cc1ccc(O)c(C)c1-c1cc(-c2ccnc(OC[C@H]3CCNC3)c2)cc(C(N)=O)c1N`, for which the IC50 was 2.19 µM in the data set on HCC1569 [1] and 8.53 µM in the data set on ZR-75-1 [2].
Regarding `Cc1ccc(O)c(C)c1-c1cc(-c2ccnc(N3C[C@@H]4C[C@H]3CN4)c2)cc(C(N)=O)c1N`, the IC50 in the data set on HCC1569 [1] is 7.78 µM; with ZR-75-1 [2], above 20 µM.
For the compound `Cc1ccc(O)c(C)c1-c1cc(-c2ccnc(N3CCCNCC3)c2)cc(C(N)=O)c1N`, the IC50 in the data set on HCC1569 [1] worked out at 0.29 µM; in the data set on ZR-75-1 [2], 4.83 µM.
The matching figures for `Cc1ccc(O)c(C)c1-c1cc(-c2ccnc(OCCCN)c2)cc(C(N)=O)c1N`: 9.48 µM and 15.4 µM.
The matching figures for `CNCCCOc1cc(-c2cc(C(N)=O)c(N)c(-c3c(C)ccc(O)c3C)c2)ccn1`: 2.49 µM and above 20 µM.
In the case of `Cc1ccc(O)c(C)c1-c1cc(-c2ccnc(OC[C@@H]3CCCN3)c2)cc(C(N)=O)c1N`, the values for the IC50 with HCC1569 [1] and with ZR-75-1 [2] were 1.18 µM and 7.12 µM, respectively.
As for `Cc1ccc(O)c(C)c1-c1cc(-c2ccnc(N3CCNCC3)c2)cc(C(N)=O)c1N`, the IC50 in the data set on HCC1569 [1] is 1.39 µM; in the data set on ZR-75-1 [2] it was above 20 µM.
With `Cc1ccc(O)c(C)c1-c1cc(-c2cc(F)nc(N3CC[C@@H](N)C3)c2)cc(C(N)=O)c1N`, the IC50 in the data set with HCC1569 [1] came out at 0.25 µM; with ZR-75-1 [2] it was 4.96 µM; in [3], 0.0165 µM; at Wee1-like protein kinase, 8.2 µM; against Activated CDC42 kinase 1, 0.268 µM; in data set [4], 0.0109 µM. Also, the IC50 in data set [5] turned out to be 0.0601 µM; in data set [6] it was 0.008 µM; in [7], 0.0099 µM; in [8] it was 0.0106 µM; on Ephrin type-A receptor 1, 0.11 µM; on Ephrin type-B receptor 2 it was 0.0272 µM. The IC50 came to 0.0416 µM against Ephrin type-B receptor 1; 0.134 µM on Ephrin type-B receptor 4; 0.0093 µM in [9]; 0.0486 µM in [10]; 0.0145 µM in data set [11]; 0.0183 µM in [12]. Moreover, the IC50 in [13] was above 1 µM. Further, the inhibition entry in data set [14] was “Dose-Dependent Effect”; in data set [15] it was 100%. Also, the inhibition entry in data set [16] and in data set [17] was “inactive” in each case. Further, the EC50 is 0.117 µM in the data set with HCC1569 [18] and above 5 µM in the data set on ZR-75-1 [19]. The Activity result in the data set with HCC1569 [20] is “Dose-Dependent Effect”; in the data set on HCC1569 [21] it was “Tde”. For the same compound, the outcome with HCC1569 [22] and with HCC1569 [23] was Active. In [24], this compound yielded a Cmax of 6.17 ng/mL. In addition, the AUCt in data set [25] was found to be 6.51 ng·h/mL. In data set [26], this compound yielded a CL of 92.17 mL/min/kg.
Take `Cc1ccc(O)c(C)c1-c1cc(-c2ccnc(OC3CCNCC3)c2)cc(C(N)=O)c1N`: the IC50 in the data set with HCC1569 [1] is 3.84 µM; in the data set on ZR-75-1 [2] it was above 20 µM.
Turning to `Cc1ccc(O)c(C)c1-c1cc(-c2ccnc(N3CC[C@@H](N)C3)c2)cc(C(N)=O)c1N`, the results for the half-maximal inhibitory concentration (IC50) in the data set on HCC1569 [1] and with ZR-75-1 [2] were 0.29 µM and 8.49 µM, respectively.
As for `Cc1ccc(O)c(C)c1-c1cc(-c2ccncc2)cc(C(N)=O)c1N`, the IC50 stood at 0.77 µM in the data set on HCC1569 [1], 11.6 µM in the data set with ZR-75-1 [2] and 0.101 µM in data set [3].

A word on the IC50: it is the point on the concentration scale where inhibition reaches its midpoint. By inhibition is commonly meant how much of the control response was suppressed. A word on the EC50: it is the concentration that produces a half-maximal response. A high value points to lower potency in that assay. As usually defined, the Cmax is the maximum level reached in the sampled fluid or tissue.

Values taken from ChEMBL document CHEMBL5584337, “Structure-Based Drug Design of 2-Amino-[1,1'-biphenyl]-3-carboxamide Derivatives as Selective PKMYT1 Inhibitors for the Treatment of CCNE1-Amplified Breast Cancer” (J Med Chem, 2024).
